Here are results for nine molecules from patent publication US5446130A, “Parathyroid hormone antagonists” (Mitsubishi Kasei Corporation, priority 1990, dated 1995).

Where no end group is shown, it is not given here.

The assay deals with output of cAMP produced by 5×10^-9 M hPTH (1-34) in cultured mouse osteoblast MC3T3-E1. Briefly: Determination of PTH antagonism: inhibition of cAMP output induced by hPTH (1-34) in cultured mouse osteoblast MC3T3-E1. Type of assay: cell-based. The conditions noted are these: Table 4, 50% inhibition of cAMP output by 5×10^-9 M hPTH (1-34), ratio to control Compound No. 15 = 1. The procedure:
PTH antagonism of the PTHrP derivatives (I) of the present invention was determined on the basis of the output of cAMP, using cultured mouse osteoblast MC3T3-E1.
To a multiwell-culture plate of 12-well were inoculated 1×10^5 cells/well of the cultured cells, and the plate was incubated at 37° C. under 95% air-5% CO2 atmosphere for 3 days after addition of α-modified MEM containing 10% semi-fetal bovine serum as a medium. Then, the medium was exchanged with α-modified MEM containing 1% bovine serum albumin and the cultured cells were incubated for 6 hours. The medium was replaced by α-modified MEM containing various concentrations of the compound of the present invention, 5×10^-9 M hPTH (1-34), 1% bovine serum albumin and 1 mM isobutylmethylxanthin, and the mixture was incubated for 1 hour. The medium was separated from the cells, and the medium was used as a sample for assaying cAMP. The cells were shaken with 90% n-propyl alcohol to extract cAMP according to Yamaguchi et al., J. Biol. Chem., 262, 7711-7718 (1987) for preparing another sample.
Assay of cAMP was performed using a commercially available cAMP-radioimmunoassay kit. […] Compound numbers in the tables correspond to those in Table 2.
On to `CC[C@H](C)[C@H](NC(=O)[C@H](CC(C)C)NC(=O)[C@H](Cc1c[nH]cn1)NC(=O)[C@H](Cc1c[nH]cn1)NC(=O)[C@H](CC(C)C)NC(=O)[C@H](Cc1ccccc1)NC(=O)[C@H](Cc1ccccc1)NC(=O)[C@H](CCCNC(=N)N)NC(=O)[C@H](CCCNC(=N)N)NC(=O)[C@H](CCCNC(=N)N)NC(=O)[C@H](CC(C)C)NC(=O)[C@H](CC(=O)O)NC(=O)[C@H](CCC(N)=O)NC(=O)[C@@H](NC(=O)[C@H](CO)NC(=O)[C@H](CCCCN)NC(=O)CNC(=O)[C@H](CCCCN)NC(=O)[C@H](CC(=O)O)NC(=O)[C@H](Cc1c[nH]cn1)NC(=O)[C@H](CCSC)NC(=O)[C@H](CC(C)C)NC(=O)[C@H](CCC(N)=O)NC(=O)[C@@H](N)CC(C)C)[C@@H](C)CC)C(=O)N[C@@H](C)C(=O)N[C@@H](CCC(=O)O)C(=O)N[C@H](C(=O)N[C@@H](Cc1c[nH]cn1)C(=O)N[C@H](C(=O)N[C@@H](C)C(N)=O)[C@@H](C)O)[C@@H](C)CC` [Compound No. 9], for which the “IC50 Ratio” value is listed as 1.02.

Take `CCCCCCCCCCCCCC(=O)N[C@@H](CCC(N)=O)C(=O)N[C@@H](CC(C)C)C(=O)N[C@@H](CCSC)C(=O)N[C@@H](Cc1c[nH]cn1)C(=O)N[C@@H](CC(=O)O)C(=O)N[C@@H](CCCCN)C(=O)NCC(=O)N[C@@H](CCCCN)C(=O)N[C@@H](CO)C(=O)N[C@H](C(=O)N[C@@H](CCC(N)=O)C(=O)N[C@@H](CC(=O)O)C(=O)N[C@@H](CC(C)C)C(=O)N[C@@H](CCCNC(=N)N)C(=O)N[C@@H](CCCNC(=N)N)C(=O)N[C@@H](CCCNC(=N)N)C(=O)N[C@@H](Cc1ccccc1)C(=O)N[C@@H](Cc1ccccc1)C(=O)N[C@@H](CC(C)C)C(=O)N[C@@H](Cc1c[nH]cn1)C(=O)N[C@@H](Cc1c[nH]cn1)C(=O)N[C@@H](CC(C)C)C(=O)N[C@H](C(=O)N[C@@H](C)C(=O)N[C@@H](CCC(=O)O)C(=O)N[C@H](C(=O)N[C@@H](Cc1c[nH]cn1)C(=O)N[C@H](C(=O)N[C@@H](C)C(N)=O)[C@@H](C)O)[C@@H](C)CC)[C@@H](C)CC)[C@@H](C)CC` [Compound No. 10]: the “IC50 Ratio” value is given as 2.24.

For the molecule `CCCC[C@H](NC(=O)[C@H](CCC(N)=O)NC(=O)[C@@H](N)[C@@H](C)CC)C(=O)N[C@@H](CCSC)C(=O)N[C@@H](Cc1c[nH]cn1)C(=O)N[C@@H](CC(=O)O)C(=O)N[C@@H](CCCCN)C(=O)NCC(=O)N[C@@H](CCCCN)C(=O)N[C@@H](CO)C(=O)N[C@H](C(=O)N[C@@H](CCC(N)=O)C(=O)N[C@@H](CC(=O)O)C(=O)N[C@@H](CC(C)C)C(=O)N[C@@H](CCCNC(=N)N)C(=O)N[C@@H](CCCNC(=N)N)C(=O)N[C@@H](CCCNC(=N)N)C(=O)N[C@@H](Cc1ccccc1)C(=O)N[C@@H](Cc1ccccc1)C(=O)N[C@@H](CC(C)C)C(=O)N[C@@H](Cc1c[nH]cn1)C(=O)N[C@@H](Cc1c[nH]cn1)C(=O)N[C@@H](CC(C)C)C(=O)N[C@H](C(=O)N[C@@H](C)C(=O)N[C@@H](CCC(=O)O)C(=O)N[C@H](C(=O)N[C@@H](Cc1c[nH]cn1)C(=O)N[C@H](C(=O)N[C@@H](C)C(N)=O)[C@@H](C)O)[C@@H](C)CC)[C@@H](C)CC)[C@@H](C)CC` [Compound No. 14], the “IC50 Ratio” value was determined as 0.922.

Regarding `CC[C@H](C)[C@H](N)C(=O)N[C@@H](CCC(N)=O)C(=O)N[C@@H](CC(C)C)C(=O)N[C@@H](CCSC)C(=O)N[C@@H](Cc1c[nH]cn1)C(=O)N[C@@H](C)C(=O)N[C@@H](CCCCN)C(=O)NCC(=O)N[C@@H](CCCCN)C(=O)N[C@@H](CO)C(=O)N[C@H](C(=O)N[C@@H](CCC(N)=O)C(=O)N[C@@H](CC(=O)O)C(=O)N[C@@H](CC(C)C)C(=O)N[C@@H](CCCNC(=N)N)C(=O)N[C@@H](CCCNC(=N)N)C(=O)N[C@@H](CCCNC(=N)N)C(=O)N[C@@H](Cc1ccccc1)C(=O)N[C@@H](Cc1ccccc1)C(=O)N[C@@H](CC(C)C)C(=O)N[C@@H](Cc1c[nH]cn1)C(=O)N[C@@H](Cc1c[nH]cn1)C(=O)N[C@@H](CC(C)C)C(=O)N[C@H](C(=O)N[C@@H](C)C(=O)N[C@@H](CCC(=O)O)C(=O)N[C@H](C(=O)N[C@@H](Cc1c[nH]cn1)C(=O)N[C@H](C(=O)N[C@@H](C)C(N)=O)[C@@H](C)O)[C@@H](C)CC)[C@@H](C)CC)[C@@H](C)CC` [Compound No. 17], the “IC50 Ratio” value is recorded as 1.17.

In the case of `CC[C@H](C)[C@H](N)C(=O)N[C@@H](CCC(N)=O)C(=O)N[C@@H](CC(C)C)C(=O)N[C@@H](CCSC)C(=O)N[C@@H](Cc1c[nH]cn1)C(=O)N[C@@H](C)C(=O)N[C@@H](CC(C)C)C(=O)NCC(=O)N[C@@H](CCCCN)C(=O)N[C@@H](CO)C(=O)N[C@H](C(=O)N[C@@H](CCC(N)=O)C(=O)N[C@@H](CC(=O)O)C(=O)N[C@@H](CC(C)C)C(=O)N[C@@H](CCCNC(=N)N)C(=O)N[C@@H](CCCNC(=N)N)C(=O)N[C@@H](CCCNC(=N)N)C(=O)N[C@@H](Cc1ccccc1)C(=O)N[C@@H](Cc1ccccc1)C(=O)N[C@@H](CC(C)C)C(=O)N[C@@H](Cc1c[nH]cn1)C(=O)N[C@@H](Cc1c[nH]cn1)C(=O)N[C@@H](CC(C)C)C(=O)N[C@H](C(=O)N[C@@H](C)C(=O)N[C@@H](CCC(=O)O)C(=O)N[C@H](C(=O)N[C@@H](Cc1c[nH]cn1)C(=O)N[C@H](C(=O)N[C@@H](C)C(N)=O)[C@@H](C)O)[C@@H](C)CC)[C@@H](C)CC)[C@@H](C)CC` [Compound No. 18], the “IC50 Ratio” value stood at 1.97.

Take `CC[C@H](C)[C@H](NC(C)=O)C(=O)N[C@@H](CCC(N)=O)C(=O)N[C@@H](CC(C)C)C(=O)N[C@@H](CCSC)C(=O)N[C@@H](Cc1c[nH]cn1)C(=O)N[C@@H](CC(=O)O)C(=O)N[C@@H](CCCCN)C(=O)NCC(=O)N[C@@H](CCCCN)C(=O)N[C@@H](CO)C(=O)N[C@H](C(=O)N[C@@H](CCC(N)=O)C(=O)N[C@@H](CC(=O)O)C(=O)N[C@@H](CC(C)C)C(=O)N[C@@H](CCCNC(=N)N)C(=O)N[C@@H](CCCNC(=N)N)C(=O)N[C@@H](CCCNC(=N)N)C(=O)N[C@@H](Cc1ccccc1)C(=O)N[C@@H](Cc1ccccc1)C(=O)N[C@@H](CC(C)C)C(=O)N[C@@H](Cc1c[nH]cn1)C(=O)N[C@@H](Cc1c[nH]cn1)C(=O)N[C@@H](CC(C)C)C(=O)N[C@H](C(=O)N[C@@H](C)C(=O)N[C@@H](CCC(=O)O)C(=O)N[C@H](C(=O)N[C@@H](Cc1c[nH]cn1)C(=O)N[C@H](C(=O)N[C@@H](C)C(N)=O)[C@@H](C)O)[C@@H](C)CC)[C@@H](C)CC)[C@@H](C)CC` [Compound No. 21]: the “IC50 Ratio” value was found to be 0.934.

Take `CCCCCCCCCCCCCC(=O)N[C@H](C(=O)N[C@@H](CCC(N)=O)C(=O)N[C@@H](CC(C)C)C(=O)N[C@@H](CCSC)C(=O)N[C@@H](Cc1c[nH]cn1)C(=O)N[C@@H](CC(=O)O)C(=O)N[C@@H](CCCCN)C(=O)NCC(=O)N[C@@H](CCCCN)C(=O)N[C@@H](CO)C(=O)N[C@H](C(=O)N[C@@H](CCC(N)=O)C(=O)N[C@@H](CC(=O)O)C(=O)N[C@@H](CC(C)C)C(=O)N[C@@H](CCCNC(=N)N)C(=O)N[C@@H](CCCNC(=N)N)C(=O)N[C@@H](CCCNC(=N)N)C(=O)N[C@@H](Cc1ccccc1)C(=O)N[C@@H](Cc1ccccc1)C(=O)N[C@@H](CC(C)C)C(=O)N[C@@H](Cc1c[nH]cn1)C(=O)N[C@@H](Cc1c[nH]cn1)C(=O)N[C@@H](CC(C)C)C(=O)N[C@H](C(=O)N[C@@H](C)C(=O)N[C@@H](CCC(=O)O)C(=O)N[C@H](C(=O)N[C@@H](Cc1c[nH]cn1)C(=O)N[C@H](C(=O)N[C@@H](C)C(N)=O)[C@@H](C)O)[C@@H](C)CC)[C@@H](C)CC)[C@@H](C)CC)[C@@H](C)CC` [Compound No. 22]: the “IC50 Ratio” value turned out to be 0.765.

Turning to “IQLMHDKGKSIQDLRRRFFLHKLIAEIHTA-NH2 [Compound No. 20]”, the “IC50 Ratio” value is listed as 1.01.

In the case of “IQLMHDKGKSIQDLRRRFFLRHLIAEIHTA-NH2 [Compound No. 19]”, the “IC50 Ratio” value worked out at 0.934.
